Consider five compounds from patent US8338473B2, “Derivatives of psammaplin A, a method for their synthesis and their uses for the prevention or treatment of cancer” (Centre National de la Recherche Scientifique, priority 2007, dated 2012).

Like-named read-outs stand apart in the source and are kept apart here.

One series concerns p21WAF1/CIP1. Description: p21 expression, Western blot in U937 cells. Format: cell-based, human. Here is the method:
(§1) FIG. 1: a) Cell cycle analysis of U937 cells treated for 30 hrs with the indicated compounds used at 1 and 5 μM; b) Caspase 3 apoptotic assay of the indicated compounds after 24 hrs of treatment in the U937 cells; c) Tubulin acetylation and p21 expression levels at 6 and 16 hrs after treatment with the indicated compounds; total tubulin expression levels are used for equal loading; d) Histone H3 acetylation and K9 H3 methylation expression levels at 6 and 16 hrs after treatment with the indicated compounds; total tubulin expression levels are used for equal loading; e) K9, K14, K18 histone H3 acetylation expression levels at 6 and 16 hrs after treatment with the indicated compounds; total ERKs expression levels are used for equal loading; f) HDAC1 enzymatic assay: IP-HDAC1 is incubated with the indicated inhibitors for 24 Hrs; activity is measured as ^3H-acetyl release; g) HDAC4 enzymatic assay: IP-HDAC4 is incubated with the indicated inhibitors for 24 hrs; activity is measured as ^3H-acetyl release.
(§2) FIG. 3: a) Cell cycle and apoptosis analysis carried out in U937 cells after 24 hrs with the indicated compounds; values are media of independent triplicates; b) CD11c expression analysis carried out in U937 cells with the indicated compounds; values are media of independent duplicates; c) Tubuline acetylation and p21 expression levels in U937 cells after 24 hrs with the indicated treatments; total ERKs expression levels are used for equal loading; d) acetylation of histone H3 under the conditions indicated in (c).
For the determination of p21^WAF1/CIP1 and p16^INK4 100 μg of total protein extracts were separated on a 15% polyacrylammide gels and blotted. Western blots were shown for p21 (Transduction Laboratories, dilution 1:500), p16 (Santa Cruz) and total ERKs (Santa Cruz) were used to normalise for equal loading. For alpha-tubulin acetylation 25 μg of total protein extracts were separated on a 10% polyacrylamide gels and blotted. […]
Background: Immunoblotting shows a protein as a band on a membrane.

For a further series, the system named is histone H3. In words: Histone H3 acetylation and K9 H3 methylation levels in U937 cells. The class given is cell-based, human. The settings on record: U937, 6 and 16 hrs. Here is the method:
as §1
For the determination of p21^WAF1/CIP1 and p16^INK4 100 μg of total protein extracts were separated on a 15% polyacrylammide gels and blotted. Western blots were shown for p21 (Transduction Laboratories, dilution 1:500), p16 (Santa Cruz) and total ERKs (Santa Cruz) were used to normalise for equal loading. For alpha-tubulin acetylation 25 μg of total protein extracts were separated on a 10% polyacrylamide gels and blotted. Western blots were shown for acetylated alpha-tubulin (Sigma, dilution 1:500) and total ERKs (Santa Cruz) or total tubulin (Sigma) were used to normalise for equal loading.

The target of a further series is HDAC4 (Homo sapiens, UniProt P56524). Description: HDAC4 enzymatic assay (IP-HDAC4, 3H-acetyl release). The class given is biochemical. The settings on record: IP-HDAC4 incubated with inhibitor 24 hrs. Here is the method:
as §1

Series [1] concerns prostate cancer cells (LnCap). In words: Anti-proliferative and apoptogenic action in prostate cancer cells. Format: cell-based. The settings on record: data not shown.
The next series has as its target HDAC1 (Homo sapiens, UniProt Q13547). Description: HDAC1 enzymatic assay (IP-HDAC1, 3H-acetyl release). Format: biochemical. The settings on record: IP-HDAC1 incubated with inhibitor 24 hrs. Here is the method: as §1
The subject of the next series is U937 cells. In words: Caspase 3 apoptotic assay in U937 cells. The class given is cell-based, human. The settings on record: U937, 24 hrs. Here is the method: as §1
The next series addresses T1, HDAC6 (Homo sapiens, UniProt Q9UBN7).
T1 construct: Tubuline acetylation and p21 expression levels in U937 cells after 24 hrs with the indicated treatments; endogenous in cells; host or cells: U937
Description: Alpha tubulin acetylation in U937 cells (HDAC6 readout). The class given is cell-based. The settings on record: U937, 6 and 16 hrs. Here is the method:
as §1, with “release. […]” for “release.”

In series [2] the test system is breast cancer cells (ZR75.1). Description: Anti-proliferative and apoptogenic action in breast cancer cells. The class given is cell-based. The settings on record: data not shown.
The subject of another series is HDAC. The settings on record: cited from earlier work.
The test system of series [3] is U937 acute myeloid leukemia cell line. In words: Cell cycle analysis in U937 cells. Format: cell-based, human. Here is the method:
as §1, §2
(§3) Human leukemia cell line U937 was propagated in RPMI medium supplemented with 10% FBS (Foetal bovine serum; Hyclone) and antibiotics (100 U/mL penicillin, 100 μg/mL streptomycin and 250 ng/mL amphotericin-B). Cells were kept at the constant concentration of 200000 cells per milliliter of culture medium. For AML samples, bone marrow containing 80% to 90% leukemic blasts was purified over Ficoll. This study was approved by the Ethical Committee of the Second University of Naples.
MS-275 (Schering A G) was dissolved in ethanol and used at 5×10^−6M; valproic acid (VPA; Sigma) was used at 1 mM. All other compounds described were dissolved in DMSO (Sigma-Aldrich) and used at 1 or 5 μM.
2.5×10^5 cells were collected and resuspended in 500 μL of a hypotonic buffer (0.1% Triton X-100, 0.1% sodium citrate, 50 μg/mL propidium iodide, RNAse A). Cells were incubated in the dark for 30 min. Samples were acquired on a FACS-Calibur flow cytometer using the Cell Quest software (Becton Dickinson) and analysed with standard procedures using the Cell Quest software (Becton Dickinson) and the ModFit LT version 3 Software (Verity). All the experiments were performed 3 times.

For the next series, the system named is p16INK4a promoter. In words: Methylation specific PCR for the p16 gene. The class given is cell-based. The settings on record: 24 hrs. Here is the method: FIG. 2: a) Methylation specific PCR for the RARβ gene after 16 and 24 hrs of treatment with the indicated compounds; b) Methylation specific PCR for the p16 gene after 24 hrs of the indicated treatments. Samples are representative of real duplicates; c) p16 expression levels in U937 cells after 24 hrs with the indicated treatments; d) DNMT enzymatic in vitro assay carried out with 1.5 and 50 μM of the indicated compounds;
DNA extraction was performed as described below. Bisulfite treatment and PCR for the determination of p16 methylation was performed as described from the suppliers (Chemicon).

The subject of series [4] is histone deacetylases (HDAC). The settings on record: in vitro cell-free enzyme assay; read-out: IC50, inhibition of histone deacetylases (HDAC); cited from earlier work.
The subject of series [5] is ex vivo AML patient blasts. In words: Cell cycle and apoptosis in ex vivo AML patient blasts. The settings on record: for cell cycle arrest and apoptosis (caspase 3 activation): 4 ex vivo cultures, AML patients #102, #108, #109, #116. Format: cell-based, human. Here is the method: FIG. 4: a) Cell cycle analyses and apoptosis carried out in ex vivo samples from AML patients identified with numbers; b) Cell cycle analysis, apoptosis and histone H3 acetylation levels of #116 AML cells after 20 hrs is of the indicated treatments.
as §3

Series [6] relates to HCT-116 colon carcinoma cells xenografted in immunoincompetent mice. The settings on record: for Normalised tumour weight: mean of n = 10.
The nature of series [7]: Earlier tolerability tests in mice. The settings on record: 30 mg/kg. Format: in vivo. From the text:
There were 10 animals in each group.

The subject of another series is A-375 cells. In words: MTT cytotoxicity assay, A-375. The settings on record: read-out: IC50 values, MTT cytotoxicity assay; A-375, 48 h. Background: Tetrazolium assays rely on reduction of a dye to a coloured formazan, in cell work by metabolically active cells.
Another series has as its system DU-145 cells. In words: MTT cytotoxicity assay, DU-145. The settings on record: read-out: IC50 values, MTT cytotoxicity assay; DU-145, 48 h.
The subject of another series is HCT-116 cells. Description: MTT cytotoxicity assay, HCT-116. The settings on record: read-out: IC50 values, MTT cytotoxicity assay; HCT-116, 48 h.
Setting [8] is: day 1, 20 mg/kg i.p. every second day.
The mark [9] stands for this setting: day 4, 20 mg/kg i.p. every second day.
The mark [10] stands for this setting: day 12, 20 mg/kg i.p. every second day.
Setting [11] is: day 17, 20 mg/kg i.p. every second day.
Setting [12] is: day 22, 20 mg/kg i.p. every second day.

T1 sequence (Q9UBN7 whole entry): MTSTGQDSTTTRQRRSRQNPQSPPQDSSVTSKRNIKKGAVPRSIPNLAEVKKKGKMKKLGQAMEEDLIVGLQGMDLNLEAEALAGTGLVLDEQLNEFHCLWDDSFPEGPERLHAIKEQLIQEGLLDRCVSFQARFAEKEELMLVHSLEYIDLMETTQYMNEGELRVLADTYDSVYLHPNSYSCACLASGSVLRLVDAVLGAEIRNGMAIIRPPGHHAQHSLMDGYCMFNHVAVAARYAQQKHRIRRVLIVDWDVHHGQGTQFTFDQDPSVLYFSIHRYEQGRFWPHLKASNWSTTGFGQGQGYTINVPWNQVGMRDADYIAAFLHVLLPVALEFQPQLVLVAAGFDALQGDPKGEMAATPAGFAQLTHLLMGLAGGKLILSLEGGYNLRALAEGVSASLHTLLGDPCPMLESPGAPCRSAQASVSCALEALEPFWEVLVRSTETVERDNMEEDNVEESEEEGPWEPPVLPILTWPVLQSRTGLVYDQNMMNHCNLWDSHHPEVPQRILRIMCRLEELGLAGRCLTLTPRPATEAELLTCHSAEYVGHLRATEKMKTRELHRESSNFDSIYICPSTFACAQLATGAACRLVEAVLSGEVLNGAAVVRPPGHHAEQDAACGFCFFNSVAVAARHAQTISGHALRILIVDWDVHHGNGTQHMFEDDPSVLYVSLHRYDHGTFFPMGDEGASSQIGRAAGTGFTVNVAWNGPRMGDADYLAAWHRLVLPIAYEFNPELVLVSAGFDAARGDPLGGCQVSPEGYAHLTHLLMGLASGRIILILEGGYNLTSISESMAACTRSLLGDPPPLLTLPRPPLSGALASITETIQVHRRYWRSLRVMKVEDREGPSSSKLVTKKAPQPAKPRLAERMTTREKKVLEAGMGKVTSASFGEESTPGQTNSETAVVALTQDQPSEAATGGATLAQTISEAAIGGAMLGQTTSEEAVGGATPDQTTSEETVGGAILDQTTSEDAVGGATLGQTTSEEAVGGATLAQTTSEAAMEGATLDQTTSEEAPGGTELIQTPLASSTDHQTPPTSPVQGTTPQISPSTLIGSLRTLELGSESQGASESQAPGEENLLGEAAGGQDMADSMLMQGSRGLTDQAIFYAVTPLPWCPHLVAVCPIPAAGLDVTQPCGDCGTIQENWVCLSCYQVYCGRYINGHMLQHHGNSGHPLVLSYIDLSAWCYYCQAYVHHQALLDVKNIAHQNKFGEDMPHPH
Chain of HDAC1 (Q13547 whole entry, species assumed): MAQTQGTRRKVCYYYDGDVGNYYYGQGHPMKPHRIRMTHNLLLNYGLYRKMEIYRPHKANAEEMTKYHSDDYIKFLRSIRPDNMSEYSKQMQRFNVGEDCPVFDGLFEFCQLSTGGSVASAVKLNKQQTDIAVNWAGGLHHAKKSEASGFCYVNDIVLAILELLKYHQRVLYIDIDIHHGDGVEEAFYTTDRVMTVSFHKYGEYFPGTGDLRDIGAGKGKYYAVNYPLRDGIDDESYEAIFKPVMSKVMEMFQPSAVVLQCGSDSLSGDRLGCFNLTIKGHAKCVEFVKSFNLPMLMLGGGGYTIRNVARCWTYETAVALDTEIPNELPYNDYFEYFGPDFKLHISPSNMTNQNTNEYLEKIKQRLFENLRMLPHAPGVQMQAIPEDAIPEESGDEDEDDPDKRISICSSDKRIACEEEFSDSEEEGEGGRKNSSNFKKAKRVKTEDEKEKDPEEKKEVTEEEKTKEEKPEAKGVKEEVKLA
Chain of HDAC4 (P56524 whole entry, species assumed): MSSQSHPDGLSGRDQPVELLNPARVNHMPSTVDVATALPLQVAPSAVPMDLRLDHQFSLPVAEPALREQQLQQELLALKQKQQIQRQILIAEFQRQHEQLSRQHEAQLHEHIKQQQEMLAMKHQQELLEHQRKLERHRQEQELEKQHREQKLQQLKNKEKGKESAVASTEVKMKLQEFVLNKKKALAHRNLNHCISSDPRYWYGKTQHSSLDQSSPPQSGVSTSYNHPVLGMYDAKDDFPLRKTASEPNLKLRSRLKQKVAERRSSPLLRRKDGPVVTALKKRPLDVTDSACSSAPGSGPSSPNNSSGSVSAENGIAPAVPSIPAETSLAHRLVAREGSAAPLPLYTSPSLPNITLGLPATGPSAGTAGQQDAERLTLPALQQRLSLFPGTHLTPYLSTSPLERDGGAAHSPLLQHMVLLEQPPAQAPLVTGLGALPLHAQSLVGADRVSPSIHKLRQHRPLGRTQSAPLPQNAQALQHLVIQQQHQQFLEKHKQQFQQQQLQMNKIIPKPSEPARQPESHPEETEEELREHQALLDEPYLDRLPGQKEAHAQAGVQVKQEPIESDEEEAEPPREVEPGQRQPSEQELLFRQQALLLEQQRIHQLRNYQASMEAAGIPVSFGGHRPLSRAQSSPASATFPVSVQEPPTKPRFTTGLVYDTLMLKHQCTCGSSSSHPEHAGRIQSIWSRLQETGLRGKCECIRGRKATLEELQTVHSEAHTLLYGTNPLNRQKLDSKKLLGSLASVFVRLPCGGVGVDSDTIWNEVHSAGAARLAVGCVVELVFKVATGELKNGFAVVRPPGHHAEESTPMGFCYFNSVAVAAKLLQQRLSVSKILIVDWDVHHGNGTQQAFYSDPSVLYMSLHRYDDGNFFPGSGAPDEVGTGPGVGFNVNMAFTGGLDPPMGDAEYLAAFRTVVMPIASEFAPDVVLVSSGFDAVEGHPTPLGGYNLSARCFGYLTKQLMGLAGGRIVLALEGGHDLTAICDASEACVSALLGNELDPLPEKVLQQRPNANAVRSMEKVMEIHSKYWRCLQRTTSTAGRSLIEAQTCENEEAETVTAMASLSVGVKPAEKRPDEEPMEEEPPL
Chain of HDAC4 (O15379 whole entry partner, species assumed): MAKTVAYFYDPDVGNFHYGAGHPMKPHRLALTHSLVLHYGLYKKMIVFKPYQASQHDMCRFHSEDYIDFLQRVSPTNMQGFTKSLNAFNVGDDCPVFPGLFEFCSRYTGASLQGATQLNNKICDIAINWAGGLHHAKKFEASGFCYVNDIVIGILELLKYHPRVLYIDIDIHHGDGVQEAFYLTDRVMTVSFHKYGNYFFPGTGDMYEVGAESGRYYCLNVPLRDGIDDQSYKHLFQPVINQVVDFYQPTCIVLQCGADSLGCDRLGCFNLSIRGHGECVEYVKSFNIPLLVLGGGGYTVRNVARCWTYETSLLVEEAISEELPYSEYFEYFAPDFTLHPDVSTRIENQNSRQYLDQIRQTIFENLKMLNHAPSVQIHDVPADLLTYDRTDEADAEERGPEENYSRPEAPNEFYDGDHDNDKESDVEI

For orientation: IC50 means the concentration that inhibits the measured activity by half. Take `O=C(NCCSSCCNC(=O)/C(Cc1ccc(O)c(Br)c1)=N/O)/C(Cc1ccc(O)c(Br)c1)=N/O` [UVI5000, Psammaplin A]: in the series with p21WAF1/CIP1 (U937, 6 and 16 hrs), the “expression of p21WAF1/CIP1” value is on record as “dramatically increased”. Also, the “global histone H3 acetylation” value in the series with histone H3 is reported as “moderate time-dependent increase”. The “HDAC4 deacetylase activity inhibition” value at HDAC4 was “only moderate activity”. For the same compound, the “anti-proliferative and apoptogenic action” value in [1] and in series [2] was “confirmed” throughout. Besides, the HDAC1 inhibition result at HDAC1 is reported as “only a weak inhibitor of HDAC1”. Besides, the “apoptogenic effect (caspase 3)” value with U937 cells is reported as “strongest apoptogenic effect”. Moreover, the “inhibition of HDAC6 (alpha tubulin acetylation)” value at HDAC6 is recorded as “inhibited the activity of HDAC6”. The “concentration to inhibit HDAC in cell-based assay relative to enzyme-based assay” value in the series on HDAC is 1800 times. The “cell cycle arrest, position of the block” value in series [3] (U937, 30 hrs, 1 and 5 μM) was “arrests in the S and G2 phases”. Besides, in the series on p16INK4a promoter, the “unmethylated p16INK4a promoter DNA (MSP)” value is recorded as “displayed a similar activity”. The IC50 in [4] was 4.2 nM. In addition, the “cell cycle arrest and apoptosis (caspase 3 activation)” value in [5] is “induced cell cycle arrest and apoptosis”.

A word on the mortality: it is the percentage killed. A higher mortality goes with a strong lethal effect. Turning to SAHA, the Normalised tumour weight in series [6] (setting [8]) came out at 100 ± 24 mg; in series [6] (setting [9]), 166.69 ± 56.8 mg; in [6] (setting [10]), 892.95 ± 267.6 mg; in series [6] (setting [11]), 1915.59 ± 409.5 mg; in series [6] (setting [12]), 2952.8 ± 636.4 mg. The mortality in [7] amounted to 60%. For the same compound, the tolerability result in [7] is “not tolerable”. In addition, the “unmethylated p16INK4a promoter DNA (MSP)” value in the series with p16INK4a promoter is “inactive”. Moreover, the “cell cycle arrest and apoptosis (caspase 3 activation)” value in [5] is recorded as “activities similar to UVI5008”.

`Nc1ccccc1NC(=O)c1ccc(CNC(=O)OCc2cccnc2)cc1` [MS-275]: the IC50 is 2400 ± 700 nM with A-375 cells, 8200 ± 600 nM in the series with DU-145 cells and 2300 ± 300 nM in the series on HCT-116 cells. In addition, the “Percent Growth Inhibition after 22 days” value in [6] (20 mg/kg i.p. every second day) was 35 ± 12%. In addition, the Normalised tumour weight in series [6] (setting [8]) was found to be 100 ± 25 mg; in series [6] (setting [9]), 202.6 ± 81.5 mg; in series [6] (setting [10]), 746.65 ± 185 mg; in [6] (setting [11]), 1360.61 ± 288 mg; in series [6] (setting [12]), 2423.09 ± 445.5 mg. Besides, the “cell cycle arrest and apoptosis (caspase 3 activation)” value in [5] is recorded as “activities similar to UVI5008”.

With `CSCCNC(=O)/C(Cc1c[nH]c2ccc(Br)cc12)=N/O` [UVI5020], the “p21WAF1/CIP1 induction (FIG. 3c)” value with p21WAF1/CIP1 (U937, 24 hrs) is recorded as “enhanced expression”. Also, in [3] (U937, 24 hrs), the “cell cycle arrest and apoptosis, relative to UVI5008 (FIG. 3a)” value was “inactive at inducing apoptosis and G2M arrest but it induces a G1 arrest”. In series [5] (5 μM, two samples of patient blasts), the apoptotic activity result was “only a weak induction of apoptosis”.

Consider `Nc1ncn([C@@H]2O[C@H](CO)[C@@H](O)[C@H]2O)c(=O)n1` [5-azacytidine], for which, in the series with p16INK4a promoter, the “unmethylated p16INK4a promoter DNA (MSP)” value is reported as “very similar to that seen with UVI5008”.
